Assay results as given in PubChem BioAssay (NCI).
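Dose response: 5 concentrations. Exposure: 48 h. Format: 96-well plates. Endpoint: linear interpolation; highest concentration if not reached. Abbreviation: GI50, concentration required for 50% inhibition of growth. TGI is the concentration that stops growth completely.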

Experiments:
Test in all cases: growth of human tumour cells (NCI), 48 h
NCI-H226 lung = test system: NCI-H226 lung
NCI-H23 lung = test system: NCI-H23 lung
NCI-H460 lung = test system: NCI-H460 lung
NCI-H522 lung = test system: NCI-H522 lung
NCI/ADR-RES ovarian = test system: NCI/ADR-RES ovarian
OVCAR-3 ovarian = test system: OVCAR-3 ovarian
OVCAR-4 ovarian = test system: OVCAR-4 ovarian
OVCAR-5 ovarian = test system: OVCAR-5 ovarian
OVCAR-8 ovarian = test system: OVCAR-8 ovarian
PC-3 prostate = test system: PC-3 prostate
RPMI-8226 leukemia = test system: RPMI-8226 leukemia
SF-268 CNS = test system: SF-268 CNS
SF-295 CNS = test system: SF-295 CNS
SF-539 CNS = test system: SF-539 CNS
SK-MEL-2 melanoma = test system: SK-MEL-2 melanoma
SK-MEL-28 melanoma = test system: SK-MEL-28 melanoma
SK-MEL-5 melanoma = test system: SK-MEL-5 melanoma
SK-OV-3 ovarian = test system: SK-OV-3 ovarian
SN12C renal = test system: SN12C renal
SNB-19 CNS = test system: SNB-19 CNS
SNB-75 CNS = test system: SNB-75 CNS
SR leukemia = test system: SR leukemia
SW-620 colon = test system: SW-620 colon
T-47D breast = test system: T-47D breast
TK-10 renal = test system: TK-10 renal
U251 CNS = test system: U251 CNS
UACC-257 melanoma = test system: UACC-257 melanoma
UACC-62 melanoma = test system: UACC-62 melanoma
UO-31 renal = test system: UO-31 renal

C[C@]12CC[C@@H]3c4ccc(OC(=O)N(CCCl)CCCl)cc4CC[C@H]3[C@@H]1CC[C@@H]2OP(=O)(O)O
TGI (NCI-H226 lung): > 100 µM | GI50 (NCI-H23 lung): 38.4 µM | TGI (NCI-H23 lung): > 100 µM | GI50 (NCI-H460 lung): 36.1 µM | TGI (NCI-H460 lung): > 100 µM | GI50 (NCI-H522 lung): 28.8 µM | TGI (NCI-H522 lung): > 71.5 µM | GI50 (NCI/ADR-RES ovarian): 49.5 µM | TGI (NCI/ADR-RES ovarian): > 100 µM | GI50 (OVCAR-3 ovarian): 46.7 µM | TGI (OVCAR-3 ovarian): > 95.2 µM | GI50 (OVCAR-4 ovarian): > 58.1 µM | TGI (OVCAR-4 ovarian): > 100 µM | GI50 (OVCAR-5 ovarian): > 62.7 µM | TGI (OVCAR-5 ovarian): > 100 µM | GI50 (OVCAR-8 ovarian): > 85.6 µM | TGI (OVCAR-8 ovarian): > 100 µM | GI50 (PC-3 prostate): 41.2 µM | TGI (PC-3 prostate): > 100 µM | GI50 (RPMI-8226 leukemia): 39.8 µM | TGI (RPMI-8226 leukemia): > 100 µM | GI50 (SF-268 CNS): > 75.5 µM | TGI (SF-268 CNS): > 100 µM | GI50 (SF-295 CNS): 12.5 µM | TGI (SF-295 CNS): 32.5 µM | GI50 (SF-539 CNS): 22.3 µM | TGI (SF-539 CNS): > 58.1 µM | GI50 (SK-MEL-2 melanoma): 41.8 µM | TGI (SK-MEL-2 melanoma): > 100 µM | GI50 (SK-MEL-28 melanoma): 37.3 µM | TGI (SK-MEL-28 melanoma): > 100 µM | GI50 (SK-MEL-5 melanoma): 37.7 µM | TGI (SK-MEL-5 melanoma): > 100 µM | GI50 (SK-OV-3 ovarian): 32.7 µM | TGI (SK-OV-3 ovarian): > 89.2 µM | GI50 (SN12C renal): 17.2 µM | TGI (SN12C renal): 40.1 µM | GI50 (SNB-19 CNS): 28.5 µM | TGI (SNB-19 CNS): > 57.8 µM | GI50 (SNB-75 CNS): 29.2 µM | TGI (SNB-75 CNS): > 66.7 µM | GI50 (SR leukemia): 9.82 µM | TGI (SR leukemia): 33.3 µM | GI50 (SW-620 colon): > 80.7 µM | TGI (SW-620 colon): > 100 µM | GI50 (T-47D breast): > 56.4 µM | TGI (T-47D breast): > 100 µM | GI50 (TK-10 renal): > 38.3 µM | TGI (TK-10 renal): > 100 µM | GI50 (U251 CNS): 33.9 µM | TGI (U251 CNS): > 100 µM | GI50 (UACC-257 melanoma): 44.5 µM | TGI (UACC-257 melanoma): > 80.6 µM | GI50 (UACC-62 melanoma): 22.9 µM | TGI (UACC-62 melanoma): > 72.5 µM | GI50 (UO-31 renal): 79.9 µM | TGI (UO-31 renal): > 100 µM
